Target: T1, BmpD (rBmpD; LF-rBmpD) (Borreliella burgdorferi, UniProt P0CL55)
T1 construct: signal peptide (residues 1 to 17) removed; N-terminal hexahistidine tag (pET-30a(+)) kept; E. coli BL21(DE3)pLys; 39 kDa; monomer; printed end 323 may be in mature count
T1 sequence (P0CL55 18-341): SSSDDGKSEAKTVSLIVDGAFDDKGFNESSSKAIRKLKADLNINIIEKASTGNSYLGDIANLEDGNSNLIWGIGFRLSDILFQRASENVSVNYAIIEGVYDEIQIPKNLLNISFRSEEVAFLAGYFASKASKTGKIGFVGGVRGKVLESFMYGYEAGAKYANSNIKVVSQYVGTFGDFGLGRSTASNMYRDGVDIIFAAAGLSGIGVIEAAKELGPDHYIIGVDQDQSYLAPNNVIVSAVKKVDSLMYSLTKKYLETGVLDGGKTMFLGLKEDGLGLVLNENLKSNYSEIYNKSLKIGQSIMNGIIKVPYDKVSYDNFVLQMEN
Test: X-ray crystal structure ([…] A) with LC-MS of co-purified ligand; label-free MST on refolded LF-rBmpD
Assay type: binding
Conditions: endogenously bound from E. coli expression, crystals at pH 8.0; MST: 500 nM refolded ligand-free protein, single experiment, no Kd displayed

Nc1ncnc2c1ncn2[C@@H]1O[C@H](CO)[C@@H](O)[C@H]1O [adenosine]
X-ray crystal structure (1.43 A) with LC-MS of co-purified ligand; label-free MS: the ligand was a purine nucleoside, which was confirmed to be an adenosine

Reference: paper PMC7093131, “Structural and Biomolecular Analyses of Borrelia burgdorferi BmpD Reveal a Substrate-Binding Protein of an ABC-Type Nucleoside Transporter Family” (Infection and Immunity, 2020)
